Values quoted from earlier work, collected in patent publication US11759428B2, “Pharmaceutical formulation comprising esomeprazole and sodium bicarbonate” (CHONG KUN DANG PHARMACEUTICAL CORP., priority 2018, dated 2023).

Conditions: aqueous solution having 3 or lower of pH

degradation half-life: less than 10 minutes
Compound: COc1ccc2nc([S@@+]([O-])Cc3ncc(C)c(OC)c3C)[nH]c2c1 [esomeprazole, (S)-5-methoxy-2-[(4-methoxy-3,5-dimethyl-2-pyridinyl)-methyl]sulfinyl-1H-benzimid azol]
